Test results taken from patent publication US20240174716A1, “TRANSPORTER PEPTIDES AND APPLICATION THEREOF” (Vacino Biotech Co. Ltd, priority 2022, published 2024).
Values joined by “and” are separate entries in the source; they are usually repeats but may differ in a detail not shown here. Identical values can stand only once. Like-named read-outs stand apart in the source and are kept apart here. Peptide text beside a SMILES is read from it.

Key:
[1] = In vivo imaging system (IVIS) analysis of fluorescent dye-conjugated transporter peptides; parameters: species or system BALB/c mice; settings: for quantified fluorescence signal in mouse brain: after 0.5 hour of the injection; for half-life: BALB/c, mouse, brain, intravenous, read-out: half-life of the fluorescence in the mouse brains (converted)
Description: In this Example, the transporter peptide disclosed herein was administered to mice, and the distribution of the transporter peptide in the mice was detected with an in vivo fluorescence imaging system (IVIS).
One (1) mg of each transporter peptides PT-001 (SEQ ID NO: 2), PT-025 (SEQ ID NO: 11), PT-034 (SEQ ID NO: 19), and PT-031 (SEQ ID NO: 17) was dissolved in 1 mL of buffer containing 50 mM sodium bicarbonate/bicarbonate to a final concentration of 1 mg/mL. […] of 10 mg/mL fluorescent dye (VivoTag 680 XL, PerkinElmer, USA) was added to the 1 mL transporter peptide solution, and the mixture was incubated at room temperature in the dark for 1 hour. The dye-labeled product was filtered with a 3 KDa centrifugal filter device (Amicon Ultra-0.5 Centrifugal filter devices, Millipore, USA) and centrifuged at 14,000×g for 15 minutes. The fluorescent dye-conjugated transporter peptide was diluted with 1×PBS to a final volume of 0.2 mL.
BALB/c mice (BioLASCO Taiwan Co., Ltd, Taipei, Taiwan) at the age of 7-8 weeks were divided into a control group (n=1) and a test group (n=3). The mouse in the control group was administered 50 μL of fluorescent dye via tail vein injection. Mice in the group were administered 50 μL of the transporter peptide conjugated with fluorescent dye obtained above via tail vein injection. Mice were photographed using an optical imaging system (U-OI, MlLabs, Netherlands) at 0.5, 1, 2, 4, 6 and 24 hours after the injection for IVIS imaging analysis, with the excitation wavelength of 631 nm, the emission wavelength of 710 nm, and 10-second exposure time. Fluorescence signals of mouse brains were further quantified.

[2] = 10 mg/kg tail vein injection
Description: Brain tissue was collected one hour after the injection and triturated in 1.3 mL of 50 mM sodium bicarbonate/bicarbonate buffer. The brain tissue grinding fluid was centrifuged at 3000 rpm for 5 minutes, the supernatant was taken and further centrifuged at 14000 rpm for 15 minutes. Zero-point-four (0.4) mL of ice-cold methanol was added to 0.1 mL of the brain tissue grinding supernatant. The mixture was shook for 10 minutes, and then centrifuge at 14,000 rpm for 15 minutes. The brain tissue supernatant was then subjected to HPLC analysis whose method is as described in Example 2. The HPLC peak area was calculated at the retention time of 16.9 minutes, and a standard curve was plotted to calculate the content of the transporter peptide in each sample.

Caco-2 cell monolayer = settings: PT-034 on top of monolayer, 37° C.
Description: In this example, the transport efficiency of the transporter peptide disclosed herein to the Caco-2 cell monolayer was tested to analyze the penetration effect of the transporter peptide on the tissue barrier, and to analyze the ability of the transporter peptide to induce transcytosis of the cell.
Caco-2 cells were plated at 2×10^4 cells/cm^2 on 24-transwell inserts (BD Falcon, 353495) in DMEM medium with 10% FBS and cultured for 21 days to form a monolayer. Monolayers were then confirmed by transepithelial electrical resistance (TEER), and the monolayers which have at least 500-600 Ω cm^2 of TEER were qualified monolayers for the following transcytosis experiment.
HPLC was conducted by using a Water ACQUITY Arc system. The chromatographic separation was performed on a C18 column (Waters XSelect HSS T3 […], 4.6 mm×250 mm). Column temperature was maintained and operated at 40° C. The mobile phase consisted of A-0.1% trifluoroacetic acid in water and B-100% methanol. Separation was performed according to the following gradient program: 0 min-10% B, 6 min-30% B, 12 min-50% B, 18 min-90% B, 23 min-10% B. The flow rate of the mobile phase was at 1 mL/min, the injection volume of the sample was 20 μL, and the total run time was within 30 mins.
The caco-2 monolayers with TEER at 680 Ω cm^2 were equilibrated in DMEM medium (serum free). […] of PT-034 (SEQ ID NO: 19) was applied to the top of Caco-2 monolayers at 37° C. Samples of both upper and lower solution were collected at 0, 0.25, 0.5, 1, 2, 6 hours. Peptides were purified from the sample solution by solid phase extraction (SPE) using C-18 tips (Cat. no. 87784, Pierce, Waltham, Massachusetts, USA). Each sample was supplemented with a final concentration of 11.43 μM PT-034 as internal control. 300 μL sample was absorbed by the C18 tip and eluted by 100 μL methanol. The sample was then subjected to HPLC analysis. The HPLC peak area was calculated at retention time of 16.9 minutes, and a standard curve was plotted for calculating the contents of the transporter peptide in the sample solutions.

[3] = 1 mg/kg dye-conjugated peptide, tail vein injection, 0.5, 1, 2, 4 and 6 hours after injection

CC[C@H](C)[C@H](NC(=O)[C@@H](N)CC(=O)O)C(=O)N[C@@H](CO)C(=O)N[C@H](C(=O)N[C@@H](CC(C)C)C(=O)N[C@@H](CCSC)C(=O)N[C@@H](CCCCN)C(=O)N[C@@H](CCC(=O)O)C(=O)N[C@@H](Cc1ccc(O)cc1)C(=O)N[C@@H](CC(=O)O)C(=O)O)C(C)C [PT-001, DISVLMKEYD] (H-DISVLMKEYD-OH)
distribution of fluorescent signal in mice (IVIS) [1, 3]: enriched in the brain and spine
quantified fluorescence signal in mouse brain ([1]; 1 mg/kg, tail vein injection): high levels of fluorescent signals
half-life ([1]; 1 mg/kg, tail vein injection): ~5 h

CC[C@H](C)[C@H](NC(=O)[C@@H](N)CC(=O)O)C(=O)N[C@@H](CO)C(=O)N[C@H](C(=O)N[C@@H](CC(C)C)C(=O)N[C@@H](CC(=O)O)C(=O)N[C@@H](CCCCN)C(=O)N[C@@H](CCC(=O)O)C(=O)N[C@@H](Cc1ccc(O)cc1)C(=O)N[C@@H](CC(=O)O)C(=O)O)C(C)C [PT-025, DISVLDKEYD] (H-DISVLDKEYD-OH; N-terminus and C-terminus assumed)
distribution of fluorescent signal in mice (IVIS) [1, 3]: enriched in the brain and spine
quantified fluorescence signal in mouse brain ([1]; 1 mg/kg, tail vein injection): high levels of fluorescent signals
half-life ([1]; 1 mg/kg, tail vein injection): ~5 h

CC[C@H](C)[C@H](NC(=O)[C@@H](N)CC(=O)O)C(=O)N[C@@H](CO)C(=O)N[C@H](C(=O)N[C@@H](CC(C)C)C(=O)N[C@@H](CCSC)C(=O)N[C@@H](CCCCN)C(=O)N[C@@H](CCC(=O)O)C(=O)N[C@@H](Cc1ccc(O)cc1)C(=O)N[C@@H](CC(N)=O)C(=O)O)C(C)C [PT-031, DISVLMKEYN] (H-DISVLMKEYN-OH)
distribution of fluorescent signal in mice (IVIS) [1, 3]: enriched in the brain and spine
quantified fluorescence signal in mouse brain ([1]; 1 mg/kg, tail vein injection): high levels of fluorescent signals
half-life ([1]; 1 mg/kg, tail vein injection): ~5 h

CC[C@H](C)[C@H](NC(=O)[C@@H](N)CC(=O)O)C(=O)N[C@@H](CO)C(=O)N[C@H](C(=O)N[C@@H](CC(C)C)C(=O)N[C@@H](CCSC)C(=O)N[C@@H](CCCCN)C(=O)N[C@@H](CCC(=O)O)C(=O)N[C@@H](Cc1ccc(O)cc1)C(=O)N[C@@H](CCC(N)=O)C(=O)O)C(C)C [PT-034, DISVLMKEYQ]
Content of the transporter peptid in the brain tissue ([2]; brain collected one hour after injection, individual mouse): 25.9 µg and 25.5 µg
Injection dose/brain tissue weight ([2]; one hour after injection, individual mouse): 23.48% ID/g of brain and 22.09% ID/g of brain
average transport efficiency to the brain ([2]; one hour after injection, mean of 2 mice): 22.79 % ID/g of brain
distribution of fluorescent signal in mice (IVIS) ([1]; 10 mg/kg dye-conjugated peptide, tail vein injection, 1, 2, 4 and 6 hours after injection): enriched in the brain and spine
quantified fluorescence signal in mouse brain compared with control group (Dye) ([1]; 10 mg/kg, tail vein injection, after 1 hour of the injection): high level of fluorescent signal
half-life ([1]; 10 mg/kg, tail vein injection): ~5 h
transporter peptide penetrated the Caco-2 cell monolayer (Caco-2 cell monolayer; 0.25 hours): about 8%
transporter peptide penetrated the Caco-2 cell monolayer (Caco-2 cell monolayer; 1 hour): ~40%
transporter peptide penetrated the Caco-2 cell monolayer (Caco-2 cell monolayer; 2 hours): ~42%
transporter peptide penetrated the Caco-2 cell monolayer (Caco-2 cell monolayer; 6 hours): ~56%
